# In patent US8471005B2 (Cephalon, Inc., priority 2008, dated 2013):
# Like-named read-outs stand apart in the source and are kept apart here.
# Key:
# ALK = biological target: T1, ALK (Homo sapiens, UniProt Q9UM73); test: ALK Kinase Assay (ELISA/TRF, PLC-γ substrate); assay type: biochemical; conditions: read-out: ALK Potency
# T1 construct: host or cells: baculovirus expression system
# Method in brief: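 IC50 values derive from percent inhibition plotted against log10 compound concentration and fitted to a variable-slope sigmoidal equation. The underlying reaction used 30 ng/ml ALK acting on immobilized PLC-γ (10 μg/mL in TBS) at 37° C for 15 minutes, read with Eu-N1 PT66 antibody.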
# JAK2 = biological target: T2, JAK2 (Homo sapiens, UniProt O60674); test: Recombinant Human JAK2 Kinase Assay (TRF); assay type: biochemical; conditions: read-out: JAK2 Potency
# T2 construct: host or cells: baculovirus expression system
# T2 sequence (O60674 whole entry): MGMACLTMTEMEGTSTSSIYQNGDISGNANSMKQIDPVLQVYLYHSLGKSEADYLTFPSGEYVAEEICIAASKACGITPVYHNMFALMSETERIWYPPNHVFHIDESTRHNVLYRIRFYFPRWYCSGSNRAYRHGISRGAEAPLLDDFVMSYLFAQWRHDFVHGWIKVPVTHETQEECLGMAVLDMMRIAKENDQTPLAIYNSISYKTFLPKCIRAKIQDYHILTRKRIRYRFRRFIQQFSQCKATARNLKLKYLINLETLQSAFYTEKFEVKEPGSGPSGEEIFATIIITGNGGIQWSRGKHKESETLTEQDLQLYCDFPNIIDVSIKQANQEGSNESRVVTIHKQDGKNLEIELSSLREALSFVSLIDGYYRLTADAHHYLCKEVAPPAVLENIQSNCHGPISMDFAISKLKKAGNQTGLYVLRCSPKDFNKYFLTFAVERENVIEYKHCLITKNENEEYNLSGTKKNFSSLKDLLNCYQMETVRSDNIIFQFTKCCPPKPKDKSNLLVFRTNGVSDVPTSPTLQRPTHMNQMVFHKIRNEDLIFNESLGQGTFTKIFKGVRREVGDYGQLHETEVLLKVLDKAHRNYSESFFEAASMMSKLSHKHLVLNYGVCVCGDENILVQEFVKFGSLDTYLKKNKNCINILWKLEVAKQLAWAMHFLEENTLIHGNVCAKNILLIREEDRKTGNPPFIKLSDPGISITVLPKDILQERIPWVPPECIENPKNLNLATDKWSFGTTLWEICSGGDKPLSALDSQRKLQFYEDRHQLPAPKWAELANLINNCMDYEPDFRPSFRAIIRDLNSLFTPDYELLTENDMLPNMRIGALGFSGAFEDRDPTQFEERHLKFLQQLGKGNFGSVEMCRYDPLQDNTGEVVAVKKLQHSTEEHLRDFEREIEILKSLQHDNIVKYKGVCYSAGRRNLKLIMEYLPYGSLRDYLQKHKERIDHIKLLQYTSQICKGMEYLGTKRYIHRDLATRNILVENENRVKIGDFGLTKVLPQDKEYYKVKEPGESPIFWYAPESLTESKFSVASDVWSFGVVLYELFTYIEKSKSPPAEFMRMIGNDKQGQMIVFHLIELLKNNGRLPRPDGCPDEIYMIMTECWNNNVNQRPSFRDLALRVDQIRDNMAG
# Method in brief: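 TRF read-out: Eu-N1 PY100 anti-phosphotyrosine antibody detects product. Enzyme is baculovirus-expressed JAK2 at 15 ng/ml; substrate is a biotinyl 15-mer peptide bound to Neutravidin-coated wells. Buffer 20 mM HEPES pH 7.2, 0.2 μM ATP, 1 mM MnCl2, 0.1% BSA, 2.5% DMSO final; 20 min, RT.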
# [1] = ALK kinase inhibition, 1 μM ATP
# [2] = JAK2 kinase inhibition, 0.2 μM ATP
# T1 sequence (Q9UM73 19-1620): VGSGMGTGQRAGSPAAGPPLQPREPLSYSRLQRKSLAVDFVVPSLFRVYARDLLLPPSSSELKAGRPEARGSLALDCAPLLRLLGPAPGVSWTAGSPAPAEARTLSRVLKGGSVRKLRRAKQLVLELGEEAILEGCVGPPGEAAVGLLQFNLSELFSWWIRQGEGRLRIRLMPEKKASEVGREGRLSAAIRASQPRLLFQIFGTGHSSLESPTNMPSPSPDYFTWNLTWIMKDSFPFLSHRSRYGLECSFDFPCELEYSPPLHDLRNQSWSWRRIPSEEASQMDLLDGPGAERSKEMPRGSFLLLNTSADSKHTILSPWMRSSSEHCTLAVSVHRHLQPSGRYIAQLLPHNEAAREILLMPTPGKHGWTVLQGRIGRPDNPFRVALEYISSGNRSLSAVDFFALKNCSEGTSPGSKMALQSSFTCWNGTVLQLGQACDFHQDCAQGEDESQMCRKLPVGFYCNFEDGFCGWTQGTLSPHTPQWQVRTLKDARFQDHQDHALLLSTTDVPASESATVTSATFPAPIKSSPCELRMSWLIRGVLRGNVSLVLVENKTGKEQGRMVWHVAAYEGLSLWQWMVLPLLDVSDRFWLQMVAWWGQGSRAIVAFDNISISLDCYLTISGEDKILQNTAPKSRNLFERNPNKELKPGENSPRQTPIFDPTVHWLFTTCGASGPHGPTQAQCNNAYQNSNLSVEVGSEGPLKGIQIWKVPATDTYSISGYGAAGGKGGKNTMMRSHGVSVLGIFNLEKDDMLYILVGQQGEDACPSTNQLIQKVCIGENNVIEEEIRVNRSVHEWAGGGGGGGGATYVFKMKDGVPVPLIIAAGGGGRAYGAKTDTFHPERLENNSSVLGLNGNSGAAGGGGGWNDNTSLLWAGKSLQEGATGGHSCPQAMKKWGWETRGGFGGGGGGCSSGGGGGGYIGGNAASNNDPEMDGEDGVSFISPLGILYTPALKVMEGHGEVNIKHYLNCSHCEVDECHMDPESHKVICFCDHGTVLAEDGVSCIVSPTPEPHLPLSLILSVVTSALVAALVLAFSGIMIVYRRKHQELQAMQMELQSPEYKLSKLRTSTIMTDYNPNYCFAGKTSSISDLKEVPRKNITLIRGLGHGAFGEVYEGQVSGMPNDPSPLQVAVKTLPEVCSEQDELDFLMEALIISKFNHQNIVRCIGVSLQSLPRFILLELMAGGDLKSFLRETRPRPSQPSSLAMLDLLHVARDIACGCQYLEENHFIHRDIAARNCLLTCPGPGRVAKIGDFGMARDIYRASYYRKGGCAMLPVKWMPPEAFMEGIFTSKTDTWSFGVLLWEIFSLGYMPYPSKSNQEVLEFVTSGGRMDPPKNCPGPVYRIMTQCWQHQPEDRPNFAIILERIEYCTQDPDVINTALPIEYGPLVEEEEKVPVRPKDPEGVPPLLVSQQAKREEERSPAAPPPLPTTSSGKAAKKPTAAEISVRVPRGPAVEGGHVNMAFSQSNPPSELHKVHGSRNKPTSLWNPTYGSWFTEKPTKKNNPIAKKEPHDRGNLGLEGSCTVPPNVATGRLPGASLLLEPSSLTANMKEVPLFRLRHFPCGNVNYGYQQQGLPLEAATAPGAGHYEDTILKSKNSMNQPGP
SMILES,IC50 (ALK; ALK Kinase Inhibition) [µM],IC50 (JAK2; JAK2 Kinase Inhibition) [µM],IC50 (ALK; [1]) [µM],IC50 (JAK2; [2]) [µM]
"CN1CCN(c2ccc(Nc3ncc4ccc(-c5ccccc5OCC(=O)O)n4n3)cc2F)CC1 [Example 1401, (2-{2-[3-Fluoro-4-(4-methyl-piperazin-1-yl)-phenylamino]-pyrrolo[2,1-f][1,2,4]triazin-7-yl}-phenoxy)-acetic acid]",0.1 to 1,< 0.1,–,–
"COc1ccccc1-c1ccc2cnc(Nc3ccc(OCCN4CCN(C)CC4)cc3)nn12 [Example 94, [7-(2-Methoxy-phenyl)-pyrrolo[2,1-f][1,2,4]triazin-2-yl]-{4-[2-(4-methyl-piperazin-1-yl)-ethoxy]-phenyl}-amine]",< 0.1,< 0.1,–,–
"CN(c1ccccc1-c1ccc2cnc(Nc3ccc4nc(CN5CCOCC5)[nH]c4c3)nn12)S(C)(=O)=O [Example 1517, N-Methyl-N-{2-[2-(2-morpholin-4-ylmethyl-3H-benzimidazol-5-ylamino)-pyrrolo[2,1-f][1,2,4]triazin-7-yl]-phenyl}-methanesulfonamide]",0.1 to 1,< 0.1,–,–
"CN(c1ccccc1-c1ccc2cnc(Nc3cncc(C(N)=O)c3)nn12)S(C)(=O)=O [Example 666, 5-{7-[2-(Methanesulfonyl-methyl-amino)-phenyl]-pyrrolo[2,1-f][1,2,4]triazin-2-ylamino}-nicotinamide]",–,–,1 to 10,< 0.1
"COc1ccc(CN2CCOCC2)cc1Nc1ncc2ccc(-c3ccccc3OC)n2n1 [Example 499, (2-Methoxy-5-morpholin-4-ylmethyl-phenyl)-[7-(2-methoxy-phenyl)-pyrrolo[2,1-f][1,2,4]triazin-2-yl]-amine]",–,–,1 to 10,0.1 to 1
"COc1cc(N2CCC(N3CCCN(C)CC3)CC2)ccc1Nc1ncc2ccc(-c3ccccc3N(C)S(C)(=O)=O)n2n1 [Example 784, N-[2-(2-{2-Methoxy-4-[4-(4-methyl-[1,4]diazepan-1-yl)-piperidin-1-yl]-phenylamino}-pyrrolo[2,1-f][1,2,4]triazin-7-yl)-phenyl]-N-methyl-methanesulfonamide]",–,–,< 0.1,0.1 to 1
"COc1ccc(N(C)S(C)(=O)=O)c(-c2ccc3cnc(Nc4ccc(C5CCN(CC(N)=O)CC5)cc4OC)nn23)c1 [Example 1283, 2-[4-(4-{7-[2-(Methanesulfonyl-methyl-amino)-5-methoxy-phenyl]-pyrrolo[2,1-f][1,2,4]triazin-2-ylamino}-3-methoxy-phenyl)-piperidin-1-yl]-acetamide]",–,–,0.1 to 1,> 10
"CN1CCN(c2ccc(Nc3ncc4ccc(-c5ccccc5[S+](C)[O-])n4n3)cc2)CC1 (centres unmarked) [Example 404, [7-(2-Methanesulfinyl-phenyl)-pyrrolo[2,1-f][1,2,4]triazin-2-yl]-[4-(4-methyl-piperazin-1-yl)-phenyl]-amine]",0.1 to 1,< 0.1,–,–
"CC(C)(C)NS(=O)(=O)c1cccc(-c2ccc3cnc(Nc4ccc5scnc5c4)nn23)c1 [Example 575, 3-[2-(Benzothiazol-5-ylamino)-pyrrolo[2,1-f][1,2,4]triazin-7-yl]-N-tert-butyl-benzenesulfonamide]",–,–,1 to 10,< 0.1
"COc1cc(C2CCNCC2O)ccc1Nc1ncc2ccc(-c3cccc4c3OCC4)n2n1 (centres unmarked) [Example 718, 4-{4-[7-(2,3-Dihydro-benzofuran-7-yl)-pyrrolo[2,1-f][1,2,4]triazin-2-ylamino]-3-methoxy-phenyl}-piperidin-3-ol]",–,–,< 0.1,< 0.1

# Now from value to compound:
IC50 (ALK; ALK Kinase Inhibition) [µM],IC50 (JAK2; JAK2 Kinase Inhibition) [µM],IC50 (ALK; [1]) [µM],IC50 (JAK2; [2]) [µM],SMILES
–,–,0.1 to 1,< 0.1,"CN1CCN(c2ccc(Nc3ncc4ccc(-c5cccc(C(=O)OC(C)(C)C)c5)n4n3)cc2)CC1 [Example 1143, 3-{2-[4-(4-Methyl-piperazin-1-yl)-phenylamino]-pyrrolo[2,1-f][1,2,4]triazin-7-yl}-benzoic acid tert-butyl ester]"
–,–,< 0.1,0.1 to 1,"COc1cc(C2CCN(C[C@@H](O)CO)CC2)c(F)cc1Nc1ncc2ccc(-c3ccccc3OC)n2n1 [Example 550, (R)-3-(4-{2-Fluoro-5-methoxy-4-[7-(2-methoxy-phenyl)-pyrrolo[2,1-f][1,2,4]triazin-2-ylamino]-phenyl}-piperidin-1-yl)-propane-1,2-diol]"
–,–,< 0.1,< 0.1,"Cc1cc(Nc2ncc3ccc(-c4ccc(S(C)(=O)=O)cc4)n3n2)ccc1C1CCN(CC(N)=O)CC1 [Example 949, 2-(4-{4-[7-(4-Methanesulfonyl-phenyl)-pyrrolo[2,1-f][1,2,4]triazin-2-ylamino]-2-methyl-phenyl}-piperidin-1-yl)-acetamide]"
–,–,0.1 to 1,< 0.1,"COc1ccccc1-c1ccc2cnc(Nc3ccc4nc[nH]c4c3)nn12 [Example 1306, (3H-Benzimidazol-5-yl)-[7-(2-methoxy-phenyl)-pyrrolo[2,1-f][1,2,4]triazin-2-yl]-amine]"
–,–,1 to 10,< 0.1,"CN1CCN(c2ccc(Nc3ncc4ccc(NCc5ccncc5)n4n3)cc2)CC1 [Example 1165, N(2)-[4-(4-Methyl-piperazin-1-yl)-phenyl]-N(7)-pyridin-4-ylmethyl-pyrrolo[2,1-f][1,2,4]triazine-2,7-diamine]"
–,–,1 to 10,< 0.1,"CN(c1ccccc1-c1ccc2cnc(Nc3ccc(N4CCOCC4)cn3)nn12)S(C)(=O)=O [Example 1176, N-Methyl-N-{2-[2-(5-morpholin-4-yl-pyridin-2-ylamino)-pyrrolo[2,1-f][1,2,4]triazin-7-yl]-phenyl}-methanesulfonamide]"
–,–,0.1 to 1,< 0.1,"O=S(=O)(c1cccc(-c2ccc3cnc(Nc4ccc(C5CCN(CCO)CC5)cc4)nn23)c1)N1CCOCC1 [Example 677, 2-[4-(4-{7-[3-(Morpholine-4-sulfonyl)-phenyl]-pyrrolo[2,1-f][1,2,4]triazin-2-ylamino}-phenyl)-piperidin-1-yl]-ethanol]"
–,–,> 10,> 10,"COc1cc(C2CCN(C(=O)OC(C)(C)C)CC2)ccc1Nc1ncc2ccc(-c3ccccc3OC)n2n1 [Example 817, 4-{3-Methoxy-4-[7-(2-methoxy-phenyl)-pyrrolo[2,1-f][1,2,4]triazin-2-ylamino]-phenyl}-piperidine-1-carboxylic acid tert-butyl ester]"
1 to 10,< 0.1,–,–,"CC(C)(C)NS(=O)(=O)c1cccc(-c2ccc3cnc(Nc4cccc(-n5cccn5)c4)nn23)c1 [Example 1386, N-tert-Butyl-3-[2-(3-pyrazol-1-yl-phenylamino)-pyrrolo[2,1-f][1,2,4]triazin-7-yl]-benzenesulfonamide]"
0.1 to 1,< 0.1,–,–,"CS(=O)(=O)c1cccc(-c2ccc3cnc(Nc4ccc(N5CCOCC5)cc4)nn23)c1 [Example 43, [7-(3-Methanesulfonyl-phenyl)-pyrrolo[2,1-f][1,2,4]triazin-2-yl]-(4-morpholin-4-yl-phenyl)-amine]"
< 0.1,< 0.1,–,–,"CN(c1ccccc1-c1cc(Cl)c2cnc(Nc3ccc(C4CCN(CC(N)=O)CC4)cc3)nn12)S(C)(=O)=O [Example 1553, 2-[4-(4-{5-Chloro-7-[2-(methanesulfonyl-methyl-amino)-phenyl]-pyrrolo[2,1-f][1,2,4]triazin-2-ylamino}-phenyl)-piperidin-1-yl]-acetamide]"
> 10,< 0.1,–,–,"Clc1cccc(-c2ccc3cnc(Nc4ccc5c(c4)OCO5)nn23)c1 [Example 150, 1,3-Benzodioxol-5-yl-[7-(3-chloro-phenyl)-pyrrolo[2,1-f][1,2,4]triazin-2-yl]-amine]"
